Data: US10758468B2, “Solubilizer for cosmetic preparations” (Symrise AG, priority 2010, dated 2020)
Blank lines part the entries; values can stand above or below the compound they belong to.

Assay: Assessment of turbidity (transparency) of compositions at production and after 3 months storage
Conditions: water to 100; for Assessment of turbidity: Storage at 5° C. / Assessment of turbidity: Storage at 40° C.: after 3 months
[1] = 0.10 wt. % bisabolol, 2.00 Solubilizer U.53787M, 0.50 pentane-1,2-diol
[2] = 0.10 wt. % bisabolol, 2.00 Solubilizer U.53787M, 1.00 1,2-propylene glycol
[3] = 0.10 wt. % bisabolol, 2.00 Solubilizer U.53787M, 2.50 pentane-1,2-diol
[4] = 0.10 wt. % bisabolol, 2.00 Solubilizer U.53787M, 3.00 1,2-propylene glycol
[5] = 0.10 wt. % bisabolol, 2.00 Solubilizer U.53787M, 4.00 glycerol
[6] = 0.20 wt. % bisabolol, 2.00 Solubilizer A, 5.00 glycerol
[7] = 0.40 wt. % menthyl lactate, 2.00 Solubilizer U.53787M, 5.00 glycerol
[8] = 0.40 wt. % menthyl lactate, 2.00 Solubilizer U.53787M, 5.00 pentane-1,2-diol
[9] = 0.50 wt. % menthyl lactate, 2.00 Solubilizer B, 5.00 glycerol

Experimental: The transparency (clarity) of the compositions was determined after 3 months at the constant storage temperature stated in each case.

- Amount of organic substance incorporated with the composition remaining clear and stable (framework formulation: 2.00 wt. % Solubilizer U.53787M, 5.00 glycerol, production at 25°, storage 3 months at 5° C. and 40° C.): 0.10 wt. %
Compound: CC(C)(C)C(=O)C(Oc1ccc(Cl)cc1)n1ccnc1 (stereo not shown) [Crinipan® AD, climbazole]

- Assessment of turbidity: Production at 25° [1]: clear
- Assessment of turbidity: Production at 25° [2]: clear
- Assessment of turbidity: Production at 25° [3]: clear
- Assessment of turbidity: Production at 25° [4]: clear
- Assessment of turbidity: Production at 25° [5]: clear
- Assessment of turbidity: Production at 25° [6]: clear
- Assessment of turbidity: Storage at 5° C. [1]: clear
- Assessment of turbidity: Storage at 40° C. [1]: clear
- Assessment of turbidity: Storage at 5° C. [2]: clear
- Assessment of turbidity: Storage at 40° C. [2]: clear
- Assessment of turbidity: Storage at 5° C. [3]: clear
- Assessment of turbidity: Storage at 40° C. [3]: clear
- Assessment of turbidity: Storage at 5° C. [4]: clear
- Assessment of turbidity: Storage at 40° C. [4]: clear
- Assessment of turbidity: Storage at 5° C. [5]: clear
- Assessment of turbidity: Storage at 40° C. [5]: clear
- Assessment of turbidity: Storage at 5° C. [6]: clear
- Assessment of turbidity: Storage at 40° C. [6]: clear
Compound: CC(C)=CCC[C@](C)(O)C1CC=C(C)CC1 (stereo partly shown) [Bisabolol]

- Assessment of turbidity: Production at 25° [7]: clear
- Assessment of turbidity: Production at 25° [8]: clear
- Assessment of turbidity: Production at 25° [9]: clear
- Assessment of turbidity: Storage at 5° C. [7]: clear
- Assessment of turbidity: Storage at 40° C. [7]: clear
- Assessment of turbidity: Storage at 5° C. [8]: clear
- Assessment of turbidity: Storage at 40° C. [8]: clear
- Assessment of turbidity: Storage at 5° C. [9]: clear
- Assessment of turbidity: Storage at 40° C. [9]: clear
Compound: CC1CCC(C(C)C)C(OC(=O)C(C)O)C1 (stereo not shown) [Frescolat ® ML, menthyl lactate]
